The source of these data is article PMC10303846, “In vitro antiplasmodial activity and toxicological profile of extracts, fractions and chemical constituents of leaves and stem bark from Dacryodes edulis (Burseraceae)” (BMC Complementary Medicine and Therapies, 2023).

In data set [1] the test system is chloroquine-sensitive Pf3D7 (MRA-102) P. falciparum strain. Put plainly: SYBR green I-based fluorescence P. falciparum growth inhibition assay, Pf3D7. It counts as cell-based. Conditions: Plasmodium falciparum, read-out: IC50 ± SD Pf3D7. How it is done: (§1) The chloroquine-sensitive Pf3D7-(MRA-102) and chloroquine-resistant PfDd2-(MRA-150) P. falciparum strains were maintained as previously described in fresh O^+ human red blood cells at 4% haematocrit in complete RPMI 1640 medium [500 mL RPMI 1640 (Gibco, UK) supplemented with 25 mM HEPES (Gibco, UK), […] (Gibco, USA), 1X hypoxanthine (Gibco, USA) and […] gentamicin (Gibco, China)] and incubating at 37 °C in a humidified atmosphere with 5% CO2. The medium was renewed daily to propagate the culture. Giemsa-stained thin blood smears were examined microscopically under immersion oil to monitor cell-cycle transition and parasitemia evolution. O^+ human red blood cells were obtained from a consent volunteer donor (Supplementary material).
(§2) Before each experiment, synchronized ring-stage parasite were obtained by 5% sorbitol (w/v) treatment with respect to Lambros and Vanderberg, 1979 [12]. It is crucial to note that, using cultures over mixed stage cultures can enable the test molecules to interact with all three stages (ring, trophozoite, and schizont) of the 48 h long life cycle of P. falciparum in culture.
(§3) A drug sensitivity assay was carried out in 96-well microtitration plates using a SYBR green I-based fluorescence assay. This assay is specifically based on the ability of SYBR green to give strong fluorescence only in the presence of parasite DNA during cell proliferation.
(§4) Shortly, sorbitol-synchronized ring stage parasites (hematocrit: 1%, parasitemia: 2%, 90 μl) under normal culture conditions were incubated in the presence of prediluted extracts, fractions, isolated compounds and reference drug (10 μL) followed by incubation at 37℃ for 72 h. After incubation, 100 μL of SYBR Green I buffer [6 μL of 10,000 × SYBR Green I (Invitrogen) + 600 μL of Red Blood Cells lysis buffer {Tris (25 mM; pH 7.5)} + 360 μL of EDTA (7.5 mM) + 19,2 μL of parasites lysis solution {saponin (0.012%; wt/vol)} and 28,8 μL of Triton X-100 (0.08%; vol/vol)}] was added to each well, mixed twice gently with a multichannel pipette and incubated in the dark at 37℃ for 1 h. Fluorescence was measured using a TECAN M 200 Microplate reader with excitation and emission at 485 and 538 nm, respectively. The fluorescence counts were plotted against the logarithm of the sample concentration and the 50% inhibitory concentration (IC50) was determined by analysis of dose–response curves using GraphPad Prism 5.0. Experiments were performed in duplicate.

For data set [2], the system named is chloroquine-resistant (multidrug-resistant) PfDd2 (MRA-150) P. falciparum strain. Put plainly: SYBR green I-based fluorescence P. falciparum growth inhibition assay, PfDd2. In kind it is cell-based, Plasmodium falciparum. Conditions: for IC50: Plasmodium falciparum, read-out: IC50 ± SD PfDd2; for antiplasmodial activity class on PfDd2: class by IC50 criteria of b51, Dd2 strain only. As for the experimental part:
as §1, §2, §3, §4

The nature of data set [3]: Resazurin-based in vitro cytotoxicity assay. In kind it is cell-based. Conditions: mouse. How it is done: The cytotoxicity profile of extracts, fractions and isolated compounds was assessed using the resazurin-based assay essentially as previously described against RAW 264.7 cells duly cultivated in complete Dulbecco′s Modified Eagle′s Medium (DMEM) that contain 13.5 g/L of DMEM (Sigma Aldrich), 10% fetal bovine serum (Sigma Aldrich), 0.2% sodium bicarbonate (w/v) (Sigma Aldrich) and 50 μg/mL of gentamicin (Sigma Aldrich). Globally, macrophages (Raw cells) were seeded into 96-well cell-culture flat-bottomed plates at a density of 10^4 cells in 100 μL of complete medium/well and placed in incubation for 24 h at 37℃, and 5% CO2 allowing cell adhesion. Following cell adhesion, ten microliters of each serially diluted test sample solution was added to assay plates and left in incubation for 48 h under the same experimental conditions. Growth control (1% DMSO-100% growth) and positive control wells (podophyllotoxin at 20 μM) were included in the experimental plates. Cell proliferation was checked by adding 10 μL of a stock solution of resazurin (0.15 mg/mL in sterile PBS) to each well followed by an additional incubation of 4 h in the same culture conditions. Fluorescence was then read using Tecan Infinite M200 fluorescence multiwell plate reader (Tecan) at an excitation/emission of 530/590 nm. The results were expressed as 50% cytotoxic concentrations (CC50) and selectivity indices (CC50 Mammalian cell/IC50 Pf3D7) were calculated for each test substance.
(Resazurin is reduced to fluorescent resorufin, in cell work by metabolically active cells.)

Data set [4] has as its system P. falciparum 3D7 and Dd2 strains. Put plainly: SYBR green antiplasmodial assay, results stated for both strains together. In kind it is cell-based, Plasmodium falciparum. Conditions: for Resistance Index (RI): PfDd2 versus Pf3D7; for antiplasmodial activity class on both Pf3D7 and PfDd2: class by IC50 criteria of b51.
Source text: The medium was renewed daily to propagate the culture. Giemsa-stained thin blood smears were examined microscopically under immersion oil to monitor cell-cycle transition and parasitemia evolution. O^+ human red blood cells were obtained from a consent volunteer donor (Supplementary material).
as §2, §3, §4

Data set [5] concerns chloroquine-resistant (Dd2) strain of P. falciparum. Conditions: Zofou and colleagues (2013) ref 9; cited from earlier work.
The mark [6] stands for this setting: reference drugs, unit nM printed with the name.
The mark [7] stands for this setting: SYBr Green based assay, 72 h, chloroquine-sensitive strain.
Where [8] appears, read: SYBr Green based assay, 72 h, multidrug-resistant strain.
The mark [9] stands for this setting: Raw cells, 48 h, resazurin, read-out: CC50.

≈ marks a conversion by molar mass, not a printed value. Where two headings read alike, the source gives them in different places.

By IC50 is commonly meant the concentration that inhibits the measured activity by half. With `C[C@@H]1CC[C@H]2[C@@H](C)C(=O)O[C@@H]3O[C@@]4(C)CC[C@@H]1[C@]32OO4` [Artemisinin, reference compound], the IC50 was 14.66 ± 0.11 nM in data set [1] (setting [6]) and 18.9 ± 0.13 nM in data set [2] (setting [6]).
A word on the CC50: it is the concentration that lowers cell viability or growth by half. `COc1c(O)cc2c(=O)oc3c(OC)c(OC4OCC(O)C(OC(=O)c5cc(O)c(O)c(O)c5)C4O)cc4c(=O)oc1c2c34` [compound 5, 3,3″-di-O-methylellagic acid 4-O-(3″-galloyl)-β-D-xylopyranoside]: the 50% inhibitory concentration (IC50) is 1.86 ± 0.18 µg/mL in data set [1] (setting [7]) and 1.76 ± 0.14 µg/mL in data set [2] (setting [8]). Also, the CC50 at 48 h in data set [3] was > 100 µg/mL. Moreover, the “Resistance Index (RI)” value in data set [4] worked out at 1.12.
With `COc1cc2c(=O)oc3c(OC)c(O)cc4c(=O)oc(c1OC)c2c34` [compound 4, 3,3′,4-tri-O-methylellagic acid], the concentration for half-maximal inhibition (IC50) is > 25 µg/mL in data set [1] (setting [7]) and 0.63 ± 0.27 µg/mL in data set [2] (setting [8]). In addition, the CC50 at 48 h in data set [3] is > 100 µg/mL.
As for `C/C(=C/CCC(C)C1CCC2(C)C3=CCC4C(C)(C)C(=O)CCC4(C)C3CCC12C)C(=O)O` (centres unmarked) [compound 13, 3-oxo-lanosta-7,24-Z-dien-26-oid acid], the results for the IC50 in data set [1] (setting [7]) and in data set [2] (setting [8]) were > 25 µg/mL and 14.21 ± 0.11 µg/mL, respectively. Moreover, the “antiplasmodial activity class on PfDd2” value in data set [2] was “moderate (10 < IC50 ≤ 20 μg/mL: moderate activity)”. In addition, the CC50 at 48 h in data set [3] (RAW 264.7 macrophage cells, Raw cells, 48 h, resazurin, read-out: CC50) is > 100 µg/mL.
For the compound `COc1cc(O)c2c(=O)c3c(C)cc(O)cc3oc2c1` [compound 2, Griseoxanthone C], the IC50 in data set [1] (72 h) and in data set [2] (72 h) was > 25 µg/mL in each case. For the same compound, the CC50 at 48 h in data set [3] (setting [9]) was > 100 µg/mL.
As for `O=C(O)c1ccc(O)c(O)c1` [compound 6, 3,4-dihydroxybenzoic acid], the results for the IC50 in data set [1] (72 h) and in data set [2] (72 h) were > 25 µg/mL and 17.09 ± 0.06 µg/mL, respectively. Besides, the “antiplasmodial activity class on PfDd2” value in data set [2] was “moderate (10 < IC50 ≤ 20 μg/mL: moderate activity)”. In addition, the CC50 at 48 h in data set [3] (setting [9]) was > 100 µg/mL.
`CC1(C)CC[C@]2(C)CC[C@]3(C)C(=CC[C@@H]4[C@@]5(C)CC[C@H](O)C(C)(C)[C@@H]5CC[C@]43C)[C@@H]2C1` [compound 12, β-amyrin]: the IC50 in data set [1] (setting [7]) and in data set [2] (setting [8]) was > 25 µg/mL each time.
Turning to `CCN(CC)CCCC(C)Nc1ccnc2cc(Cl)ccc12` (centres unmarked) [Chloroquine, reference compound], the IC50 amounted to 4.36 ± 0.53 nM in data set [1] and 133 ± 0.16 nM in data set [2].
On to `COC(=O)c1cc(O)c(O)c(O)c1` [DES4, methyl 3,4,5-trihydroxybenzoate], for which the “IC50 Dd2” value in data set [5] was 0.56 µg/mL (≈ 3.04 µM).
Consider `CCCCCCCCCCCCCCCCCCCCCCCC(=O)OCC(O)CO` (centres unmarked) [compound 8, Glyceryl-1-tetracosanoate], for which the IC50 in data set [1] (setting [7]) and in data set [2] (setting [8]) was > 25 µg/mL in each case. Also, in data set [3], the CC50 at 48 h was > 100 µg/mL.
In the case of `COc1c(O)cc2c(=O)oc3c(OC)c(O)cc4c(=O)oc1c2c34` [compound 3, 3,3′-O-dimethylellagic acid], the IC50 in data set [1] (setting [7]) was determined as 1.17 ± 0.04 µg/mL. Further, in data set [2] (setting [8]), the IC50 is 1.36 ± 0.14 µg/mL. The CC50 at 48 h in data set [3] is > 100 µg/mL. In data set [4], the “Resistance Index (RI)” value was found to be 1.16; the “antiplasmodial activity class on both Pf3D7 and PfDd2” value was “pronounced (IC50 ≤ 5 μg/mL: pronounced activity)”.
`CC(=O)OCC(Cc1ccccc1)NC(=O)C(Cc1ccccc1)NC(=O)c1ccccc1` (centres unmarked) [compound 9, Auranthiamide acetate]: the 50% inhibitory concentration (IC50) in data set [1] (setting [7]) and in data set [2] (setting [8]) was > 25 µg/mL each time. Further, the CC50 at 48 h in data set [3] was > 100 µg/mL.
On to `CCOC(=O)c1cc(O)c(O)c(O)c1` [compound 10, Ethyl gallate], for which the IC50 in data set [1] (setting [7]) was found to be 1.15 ± 0.1 µg/mL. The IC50 in data set [2] (setting [8]) stood at 2.86 ± 0.07 µg/mL. In addition, the CC50 at 48 h in data set [3] is > 100 µg/mL. For the same compound, in data set [4], the “Resistance Index (RI)” value came out at 2.48; the “antiplasmodial activity class on both Pf3D7 and PfDd2” value is on record as “pronounced (IC50 ≤ 5 μg/mL: pronounced activity)”.
`CCCCCC(=O)Cc1cc(OC)cc(O)c1C(=O)Oc1cc(CCCCC)c(C(=O)O)c(OC)c1` [compound 7, Confluentic acid]: the half-inhibitory concentration (IC50) in data set [1] (setting [7]) and in data set [2] (setting [8]) was > 25 µg/mL each time. Also, the CC50 at 48 h in data set [3] is > 100 µg/mL.
As to `CC(=O)O[C@H]1CC[C@]2(C)[C@H]3CC=C4[C@@H]5CC(C)(C)CC[C@]5(C)CC[C@@]4(C)[C@]3(C)CC[C@H]2C1(C)C` [compound 11, β-amyrin acetate], the IC50 in data set [1] (setting [7]) and in data set [2] (setting [8]) was > 25 µg/mL throughout. Also, in data set [3], the CC50 at 48 h is > 100 µg/mL.
